Oligonucleotides are written 5' to 3', each unit as a sugar letter and its base; * is a phosphorothioate linkage, no mark a phosphodiester; rarer units and linkages stand in square brackets, end groups in braces. Plain capitals give the bases only. e = 2'-O-(2-methoxyethyl) (MOE); k = constrained ethyl (cEt); [5mC] = 5-methylcytosine; d = 2'-deoxy (DNA)
Columns and labels:
[1] = test system: prostate-specific antigen (PSA) mRNA; experiment: PSA mRNA levels in LMR20 cells; type: cell-based, human; details: LMR20 cells; for PSA mRNA levels (% baseline value) after treatment with DHT: DHT 10 nM 72 hrs; for PSA mRNA levels (% baseline value) after treatment with R1881: R1881 10 nM 72 hrs; for PSA mRNA levels (% baseline value) of cells without AR agonist treatment: no AR agonist
Procedure: LMR20 cells were plated at 1,500 cells per well in phenol red-free medium with CSS. […] Results are presented in Tables 43-45 as mRNA levels expressed as a percentage of the baseline values. mRNA levels may be lowered or increased after treatment.

AR mRNA [2] = experiment: Antisense inhibition of human AR in HuVEC cells, single concentration (electroporation, qRT-PCR RTS3559); type: cell-based; details: ~24 h
Summary of the method: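 HuVEC cells electroporated with antisense oligonucleotides at a single concentration. AR mRNA quantified by qRT-PCR using human primer-probe set RTS3559 and normalised to total RNA content by RIBOGREEN.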

AR mRNA [3] = experiment: AR mRNA levels in LMR20 cells (with/without DHT or R1881); type: cell-based, human; details: LMR20 cells; for AR mRNA levels (% baseline value) after treatment with DHT: DHT 10 nM 72 hrs; for AR mRNA levels (% baseline value) after treatment with R1881: R1881 10 nM 72 hrs; for AR mRNA levels (% baseline value) of cells without AR agonist treatment: no AR agonist
Procedure: (§1) LMR20 cells were plated at 1,500 cells per well in phenol red-free medium with CSS.

AR mRNA [4] = experiment: AR mRNA in LnCaP cells by free uptake (hAR_LTS00943); type: cell-based, human; details: 24 hrs
Procedure: Cells were plated at a concentration of 4,000 cells/well in 96-well plates. ISIS oligonucleotides, specified in Table 68, were added individually at 0.02 μM, 0.10 μM, 0.50 μM, 2.50 μM, or 10.00 μM. After an incubation period of 24 hrs, mRNA levels were measured using primer probe set hAR_LTS00943.

AR mRNA [5] = experiment: Dose-dependent antisense inhibition of human AR in HuVEC cells (electroporation, qRT-PCR RTS3559, IC50); type: cell-based; details: for inhibition of AR mRNA at 46.9 nM: 46.9 nM ASO; for inhibition of AR mRNA at 187.5 nM: 187.5 nM ASO; for inhibition of AR mRNA at 750.0 nM: 750.0 nM ASO; for inhibition of AR mRNA at 3000.0 nM: 3000.0 nM ASO
Summary of the method: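 HuVEC cells dosed with antisense oligonucleotides by electroporation and treated approximately 16 hours. AR mRNA quantified by real-time qPCR with primer probe set RTS3559 and normalised to total RNA by RIBOGREEN; IC50 from dose-response.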

TMPRSS2 mRNA = TMPRSS2 mRNA levels in LMR20 cells; type: cell-based, human; details: LMR20 cells; for TMPRSS2 mRNA levels (% baseline value) after treatment with DHT: DHT 10 nM 72 hrs; for TMPRSS2 mRNA levels (% baseline value) after treatment with R1881: R1881 10 nM 72 hrs; for TMPRSS2 mRNA levels (% baseline value) of cells without AR agonist treatment: no AR agonist
Procedure: as §1

[6] = 62.5 nM, HuVEC, ~16 h, Table 10
[7] = 125.0 nM, HuVEC, ~16 h, Table 10
[8] = 500.0 nM, HuVEC, ~16 h, Table 10
[9] = 1000.0 nM, HuVEC, ~16 h, Table 10
[10] = 46.9 nM, HuVEC, ~16 h, Table 15
[11] = 187.5 nM, HuVEC, ~16 h, Table 15
[12] = 750.0 nM, HuVEC, ~16 h, Table 15
[13] = 3000.0 nM, HuVEC, ~16 h, Table 15

569236 (antisense eT*kG*kA*kT*dT*dT*dA*dA*dT*dG*dG*kT*kT*kG*e[5mC]*eA) [compound 569236]
PSA mRNA levels (% baseline value) after treatment with DHT ([1]; ASO 0.04 μM): 108 % baseline value
PSA mRNA levels (% baseline value) after treatment with DHT ([1]; ASO 0.20 μM): 79 % baseline value
PSA mRNA levels (% baseline value) after treatment with DHT ([1]; ASO 1.0 μM): 46 % baseline value
PSA mRNA levels (% baseline value) after treatment with DHT ([1]; ASO 5.0 μM): 46 % baseline value
PSA mRNA levels (% baseline value) after treatment with R1881 ([1]; ASO 0.04 μM): 90 % baseline value
PSA mRNA levels (% baseline value) after treatment with R1881 ([1]; ASO 0.20 μM): 90 % baseline value
PSA mRNA levels (% baseline value) after treatment with R1881 ([1]; ASO 1.0 μM): 57 % baseline value
PSA mRNA levels (% baseline value) after treatment with R1881 ([1]; ASO 5.0 μM): 41 % baseline value
PSA mRNA levels (% baseline value) of cells without AR agonist treatment ([1]; ASO 0.04 μM): 122 % baseline value
PSA mRNA levels (% baseline value) of cells without AR agonist treatment ([1]; ASO 0.20 μM): 90 % baseline value
PSA mRNA levels (% baseline value) of cells without AR agonist treatment ([1]; ASO 1.0 μM): 78 % baseline value
PSA mRNA levels (% baseline value) of cells without AR agonist treatment ([1]; ASO 5.0 μM): 73 % baseline value
% inhibition (AR mRNA [2]; 250 nM ASO, Table 7): 66%
AR mRNA levels (% baseline value) after treatment with DHT (AR mRNA [3]; ASO 0.04 μM): 94 % baseline value
AR mRNA levels (% baseline value) after treatment with DHT (AR mRNA [3]; ASO 0.20 μM): 77 % baseline value
AR mRNA levels (% baseline value) after treatment with DHT (AR mRNA [3]; ASO 1.0 μM): 44 % baseline value
AR mRNA levels (% baseline value) after treatment with DHT (AR mRNA [3]; ASO 5.0 μM): 34 % baseline value
AR mRNA levels (% baseline value) after treatment with R1881 (AR mRNA [3]; ASO 0.04 μM): 89 % baseline value
AR mRNA levels (% baseline value) after treatment with R1881 (AR mRNA [3]; ASO 0.20 μM): 80 % baseline value
AR mRNA levels (% baseline value) after treatment with R1881 (AR mRNA [3]; ASO 1.0 μM): 44 % baseline value
AR mRNA levels (% baseline value) after treatment with R1881 (AR mRNA [3]; ASO 5.0 μM): 37 % baseline value
AR mRNA levels (% baseline value) of cells without AR agonist treatment (AR mRNA [3]; ASO 0.04 μM): 104 % baseline value
AR mRNA levels (% baseline value) of cells without AR agonist treatment (AR mRNA [3]; ASO 0.20 μM): 87 % baseline value
AR mRNA levels (% baseline value) of cells without AR agonist treatment (AR mRNA [3]; ASO 1.0 μM): 42 % baseline value
AR mRNA levels (% baseline value) of cells without AR agonist treatment (AR mRNA [3]; ASO 5.0 μM): 27 % baseline value
Percent inhibition of AR mRNA (AR mRNA [4]; 0.02 μM): 3%
Percent inhibition of AR mRNA (AR mRNA [4]; 0.1 μM): 2%
Percent inhibition of AR mRNA (AR mRNA [4]; 0.5 μM): 21%
Percent inhibition of AR mRNA (AR mRNA [4]; 10 μM): 70%
percent inhibition of AR (AR mRNA [5]; 31.25 nM, HuVEC, ~16 h, Table 8): 17%
percent inhibition of AR (AR mRNA [5]; 62.5 nM, HuVEC, ~16 h, Table 8): 39%
percent inhibition of AR (AR mRNA [5]; [6]): 4%
percent inhibition of AR (AR mRNA [5]; 125.0 nM, HuVEC, ~16 h, Table 8): 54%
percent inhibition of AR (AR mRNA [5]; [7]): 35%
percent inhibition of AR (AR mRNA [5]; 500.0 nM, HuVEC, ~16 h, Table 8): 84%
percent inhibition of AR (AR mRNA [5]; [8]): 68%
percent inhibition of AR (AR mRNA [5]; 1000.0 nM, HuVEC, ~16 h, Table 8): 92%
percent inhibition of AR (AR mRNA [5]; [9]): 88%
IC50 (AR mRNA [5]; HuVEC, ~16 h, Table 8): 0.11 µM
IC50 (AR mRNA [5]; HuVEC, ~16 h, Table 10): 0.252 µM
TMPRSS2 mRNA levels (% baseline value) after treatment with DHT (TMPRSS2 mRNA; ASO 0.04 μM): 113 % baseline value
TMPRSS2 mRNA levels (% baseline value) after treatment with DHT (TMPRSS2 mRNA; ASO 0.20 μM): 123 % baseline value
TMPRSS2 mRNA levels (% baseline value) after treatment with DHT (TMPRSS2 mRNA; ASO 1.0 μM): 111 % baseline value
TMPRSS2 mRNA levels (% baseline value) after treatment with DHT (TMPRSS2 mRNA; ASO 5.0 μM): 110 % baseline value
TMPRSS2 mRNA levels (% baseline value) after treatment with R1881 (TMPRSS2 mRNA; ASO 0.04 μM): 126 % baseline value
TMPRSS2 mRNA levels (% baseline value) after treatment with R1881 (TMPRSS2 mRNA; ASO 0.20 μM): 131 % baseline value
TMPRSS2 mRNA levels (% baseline value) after treatment with R1881 (TMPRSS2 mRNA; ASO 1.0 μM): 98 % baseline value
TMPRSS2 mRNA levels (% baseline value) after treatment with R1881 (TMPRSS2 mRNA; ASO 5.0 μM): 95 % baseline value
TMPRSS2 mRNA levels (% baseline value) of cells without AR agonist treatment (TMPRSS2 mRNA; ASO 0.04 μM): 96 % baseline value
TMPRSS2 mRNA levels (% baseline value) of cells without AR agonist treatment (TMPRSS2 mRNA; ASO 0.20 μM): 81 % baseline value
TMPRSS2 mRNA levels (% baseline value) of cells without AR agonist treatment (TMPRSS2 mRNA; ASO 1.0 μM): 59 % baseline value
TMPRSS2 mRNA levels (% baseline value) of cells without AR agonist treatment (TMPRSS2 mRNA; ASO 5.0 μM): 48 % baseline value

579667 (antisense eT*kT*kG*eA*eT*kT*kT*dA*dA*dT*dG*dG*dT*dT*kG*k[5mC]) [compound 579667]
Percent inhibition of AR mRNA (AR mRNA [4]; 0.02 μM): 0%
Percent inhibition of AR mRNA (AR mRNA [4]; 0.1 μM): 0%
Percent inhibition of AR mRNA (AR mRNA [4]; 0.5 μM): 8%
Percent inhibition of AR mRNA (AR mRNA [4]; 10 μM): 40%
percent inhibition of AR (AR mRNA [5]; [6]): 30%
percent inhibition of AR (AR mRNA [5]; [7]): 29%
percent inhibition of AR (AR mRNA [5]; [8]): 36%
percent inhibition of AR (AR mRNA [5]; [9]): 76%
IC50 (AR mRNA [5]; HuVEC, ~16 h, Table 10): 0.411 µM

586124 (kG*kA*kT*dT*dT*dA*dA*dT*dG*dG*dT*dT*dG*k[5mC]*kA*kA; further chemistry not given here) [compound 586124]
% inhibition (AR mRNA [2]; 1,000 nM ASO, Table 13): 82%
Percent inhibition of AR mRNA (AR mRNA [4]; 0.02 μM): 0%
Percent inhibition of AR mRNA (AR mRNA [4]; 0.1 μM): 0%
Percent inhibition of AR mRNA (AR mRNA [4]; 0.5 μM): 19%
Percent inhibition of AR mRNA (AR mRNA [4]; 10 μM): 82%
percent inhibition of AR (AR mRNA [5]; [10]): 28%
percent inhibition of AR (AR mRNA [5]; [11]): 47%
percent inhibition of AR (AR mRNA [5]; [12]): 84%
percent inhibition of AR (AR mRNA [5]; [13]): 94%
IC50 (AR mRNA [5]; HuVEC cells, electroporation): 0.13 µM
inhibition of AR mRNA at 46.9 nM (AR mRNA [5]; HuVEC cells, electroporation): 28%
inhibition of AR mRNA at 187.5 nM (AR mRNA [5]; HuVEC cells, electroporation): 47%
inhibition of AR mRNA at 750.0 nM (AR mRNA [5]; HuVEC cells, electroporation): 84%
inhibition of AR mRNA at 3000.0 nM (AR mRNA [5]; HuVEC cells, electroporation): 94%
IC50 (AR mRNA [5]; HuVEC, ~16 h, Table 15): 0.13 µM

586227 (kT*kG*kA*kT*kT*dT*dA*dA*dT*dG*dG*dT*dT*kG*k[5mC]*kA; antisense) [compound 586227]
% inhibition (AR mRNA [2]; 1,000 nM ASO, Table 13): 87%
Percent inhibition of AR mRNA (AR mRNA [4]; 0.02 μM): 0%
Percent inhibition of AR mRNA (AR mRNA [4]; 0.1 μM): 0%
Percent inhibition of AR mRNA (AR mRNA [4]; 0.5 μM): 14%
Percent inhibition of AR mRNA (AR mRNA [4]; 10 μM): 59%
percent inhibition of AR (AR mRNA [5]; [10]): 20%
percent inhibition of AR (AR mRNA [5]; [11]): 60%
percent inhibition of AR (AR mRNA [5]; [12]): 88%
percent inhibition of AR (AR mRNA [5]; [13]): 96%
IC50 (AR mRNA [5]; HuVEC cells, electroporation): 0.13 µM
inhibition of AR mRNA at 46.9 nM (AR mRNA [5]; HuVEC cells, electroporation): 20%
inhibition of AR mRNA at 187.5 nM (AR mRNA [5]; HuVEC cells, electroporation): 60%
inhibition of AR mRNA at 750.0 nM (AR mRNA [5]; HuVEC cells, electroporation): 88%
inhibition of AR mRNA at 3000.0 nM (AR mRNA [5]; HuVEC cells, electroporation): 96%
IC50 (AR mRNA [5]; HuVEC, ~16 h, Table 15): 0.13 µM

Reference: patent USRE48461E1, “Modulation of androgen receptor expression” (Ionis Pharmaceuticals, Inc., priority 2012, dated 2021)
